Experimental data as given in patent US8895585B2, “Nicotinamide derivative or salt thereof” (FUJIFILM Corporation, priority 2010, dated 2014).
pIC50: −log10 of the molar value. Where two headings read alike, the source gives them in different places.

Key:
[1] = target: T1, glutathione S-transferase (GST)-fused full-length human Syk protein (Homo sapiens, UniProt P43405); experiment: Syk enzyme assay; assay type: biochemical
T1 construct: (GST)-fused full-length human Syk protein; GST (glutathione S-transferase); purchased Carna Biosciences
How it was run: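 IC50 values come from a time-resolved FRET readout (615 and 665 nm) of substrate phosphorylation, measured after an EDTA stop and 1 h antibody binding. The kinase reaction ran 40 min at room temperature with 27 μM ATP and 0.4 μM biotin-peptide, following a 15 min compound preincubation with baculovirus-made GST-full-length human Syk.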

[2] = test system: THP-1 cells; experiment: TNFα generation assay; assay type: cell-based, human; conditions: Homo sapiens
How it was run: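 THP-1 cells differentiated to macrophage-like cells with 10 ng/ml IFN-γ for 2 days, preincubated with compound 30 min at room temperature, then cultured 7 h on plates coated with human IgG (10 μg/ml). Secreted TNFα measured by ELISA or AlphaLISA.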

[3] = Syk enzyme assay, Test Example 1, read-out: IC50 of Syk-inhibitory activity
[4] = THP-1, THP-1 cells, Table 22, read-out: IC50 in TNFα generation assay
[5] = read-out: Syk-inhibitory activity (IC50)
[6] = THP-1, 7 h, IFN-γ-differentiated THP-1 cells on human IgG-coated plate, cultured 7 hours, read-out: TNFα generation inhibitory activity (IC50)

Row | SMILES | pIC50 [1, 3] | pIC50 [2, 4] | pIC50 [1, 5] | pIC50 [2, 6]
1 | CC(C)c1nn(C)c2ccc(Nc3nc(N[C@H](C4CC4)[C@H](C)N)c(F)cc3C(N)=O)cc12 [Example 006-580, 6-(((1R,2S)-2-amino-1-cyclopropylpropyl)amino)-5-fluoro-2-((3-isopropyl-1-methyl-1H-indazol-5-yl)amino)nicotinamide] | > 8.00 | 6.70 to 6.89 | – | –
2 | CCn1ncc2ccc(Nc3nc(N[C@H](C4CC4)[C@H](C)N)c(F)cc3C(N)=O)cc21 [Example 006-581, 6-(((1R,2S)-2-amino-1-cyclopropylpropyl)amino)-2-((1-ethyl-1H-indazol-6-yl)amino)-5-fluoronicotinamide] | > 8.00 | > 7.19 | – | –
3 | CCn1nc(C)c2cc(Nc3nc(N[C@H](C4CC4)[C@H](C)N)c(F)cc3C(N)=O)ccc21 [Example 006-583, 6-(((1R,2S)-2-amino-1-cyclopropylpropyl)amino)-2-((1-ethyl-3-methyl-1H-indazol-5-yl)amino)-5-fluoronicotinamide] | > 8.00 | > 7.19 | – | –
4 | Cc1nn(CC(F)F)c2ccc(Nc3nc(N[C@H](C4CC4)[C@H](C)N)c(F)cc3C(N)=O)cc12 [Example 006-584, 6-(((1R,2S)-2-amino-1-cyclopropylpropyl)amino)-2-((1-(2,2-difluoroethyl)-3-methyl-1H-indazol-5-yl)amino)-5-fluoronicotinamide] | > 8.00 | 6.89 to 7.19 | – | –
5 | COc1nn(C)c2ccc(Nc3nc(N[C@@H]4CCCC[C@@H]4N)c(F)cc3C(N)=O)cc12 [Example 006-585, 6-(((1R,2S)-2-aminocyclohexyl)amino)-5-fluoro-2-((3-methoxy-1-methyl-1H-indazol-5-yl)amino)nicotinamide] | > 8.00 | > 7.19 | – | –
6 | COc1nn(C)c2ccc(Nc3nc(N[C@H](CC4CC4)[C@H](C)N)c(F)cc3C(N)=O)cc12 [Example 006-586, 6-(((2R,3S)-3-amino-1-cyclopropylbutan-2-yl)amino)-5-fluoro-2-((3-methoxy-1-methyl-1H-indazol-5-yl)amino)nicotinamide] | > 8.00 | 6.89 to 7.19 | – | –
7 | COc1nn(C)c2ccc(Nc3nc(N[C@H](CC(C)C)[C@H](C)N)c(F)cc3C(N)=O)cc12 [Example 006-587, 6-(((2S,3R)-2-amino-5-methylhexan-3-yl)amino)-5-fluoro-2-((3-methoxy-1-methyl-1H-indazol-5-yl)amino)nicotinamide] | > 8.00 | 6.89 to 7.19 | – | –
8 | CC[C@@H](Nc1nc(Nc2ccc3c(c2)c(OC)nn3C)c(C(N)=O)cc1F)[C@H](C)N [Example 006-588, 6-(((2S,3R)-2-aminopentan-3-yl)amino)-5-fluoro-2-((3-methoxy-1-methyl-1H-indazol-5-yl)amino)nicotinamide] | > 8.00 | > 7.19 | – | –
9 | COc1nn(C)c2ccc(Nc3nc(N[C@H](C4CC4)[C@H](C)N)c(F)cc3C(N)=O)cc12 [Example 006-589, 6-(((1R,2S)-2-amino-1-cyclopropylpropyl)amino)-5-fluoro-2-((3-methoxy-1-methyl-1H-indazol-5-yl)amino)nicotinamide] | > 8.00 | 6.89 to 7.19 | – | –
10 | CCOc1nn(CC)c2ccc(Nc3nc(N[C@@H]4CCCC[C@@H]4N)c(F)cc3C(N)=O)cc12 [Example 006-590, 6-(((1R,2S)-2-aminocyclohexyl)amino)-2-((3-ethoxy-1-ethyl-1H-indazol-5-yl)amino)-5-fluoronicotinamide] | > 8.00 | 6.70 to 6.89 | – | –
11 | CCOc1nn(CC)c2ccc(Nc3nc(N[C@H](CC4CC4)[C@H](C)N)c(F)cc3C(N)=O)cc12 [Example 006-591, 6-(((2R,3S)-3-amino-1-cyclopropylbutan-2-yl)amino)-2-((3-ethoxy-1-ethyl-1H-indazol-5-yl)amino)-5-fluoronicotinamide] | > 8.00 | 6.70 to 6.89 | – | –
12 | CCOc1nn(CC)c2ccc(Nc3nc(N[C@H](CC(C)C)[C@H](C)N)c(F)cc3C(N)=O)cc12 [Example 006-592, 6-(((2S,3R)-2-amino-5-methylhexan-3-yl)amino)-2-((3-ethoxy-1-ethyl-1H-indazol-5-yl)amino)-5-fluoronicotinamide] | > 8.00 | 6.70 to 6.89 | – | –
13 | CCOc1nn(CC)c2ccc(Nc3nc(N[C@H](CC)[C@H](C)N)c(F)cc3C(N)=O)cc12 [Example 006-593, 6-(((2S,3R)-2-aminopentan-3-yl)amino)-2-((3-ethoxy-1-ethyl-1H-indazol-5-yl)amino)-5-fluoronicotinamide] | > 8.00 | 6.89 to 7.19 | – | –
14 | CC[C@@H](Nc1nc(Nc2ccc3c(c2)c(-n2cccn2)nn3C)c(C(N)=O)cc1F)[C@H](C)N [Example 006-596, 6-(((2S,3R)-2-aminopentan-3-yl)amino)-5-fluoro-2-((1-methyl-3-(1H-pyrazol-1-yl)-1H-indazol-5-yl)amino)nicotinamide] | > 8.00 | 6.89 to 7.19 | – | –
15 | Cc1cc(Nc2nc(N[C@H](C3CCC3)[C@H](C)N)c(F)cc2C(N)=O)cnc1C [Example 006-597, 6-(((1R,2S)-2-amino-1-cyclobutylpropyl)amino)-2-((5,6-dimethylpyridin-3-yl)amino)-5-fluoronicotinamide] | > 8.00 | 6.89 to 7.19 | – | –
16 | Cc1ncc(Nc2nc(N[C@H](C3CCC3)[C@H](C)N)c(F)cc2C(N)=O)cc1-n1nccn1 [Example 006-598, 6-(((1R,2S)-2-amino-1-cyclobutylpropyl)amino)-5-fluoro-2-((6-methyl-5-(2H-1,2,3-triazol-2-yl)pyridin-3-yl)amino)nicotinamide] | > 8.00 | 6.70 to 6.89 | – | –
17 | COc1cc(Nc2nc(NCCN)c(F)cc2C(N)=O)cc(OC)c1 [Example 008-001] | 7.30 to 8.00 | 6.89 to 7.19 | – | –
18 | CC(C)C[C@@H](Nc1nc(Nc2ccc3ncccc3c2)c(C(N)=O)cc1F)C(N)=O [Example 11, 6-(((2R)-1-amino-4-methyl-1-oxopentan-2-yl)amino)-5-fluoro-2-(quinolin-6-ylamino)nicotinamide] | – | – | ≥ 6.00 | ≥ 6.70
19 | NC(=O)c1cc(F)c(N[C@@H](C(N)=O)c2ccccc2)nc1Nc1ccc2ncccc2c1 [Example 12-8, 6-(((1R)-2-amino-2-oxo-1-phenylethyl)amino)-5-fluoro-2-(quinolin-6-ylamino)nicotinamide] | – | – | ≥ 6.00 | ≥ 6.70
20 | C[C@H](N)CNc1nc(Nc2ccc3ncccc3c2)c(C(N)=O)cc1F [Example 13, 6-((2S)-2-aminopropylamino)-5-fluoro-2-(quinolin-6-ylamino)nicotinamide] | – | – | ≥ 6.00 | ≥ 6.70

Further lines, results first:

Row | pIC50 [1, 3] | pIC50 [2, 4] | pIC50 [1, 5] | pIC50 [2, 6] | SMILES
21 | > 8.00 | > 7.19 | – | – | NC(=O)c1cc(F)c(NC2CCCCC2N)nc1Nc1cncc2ccccc12 (stereo not shown) [Example 010-001]
22 | 7.30 to 8.00 | 6.70 to 6.89 | – | – | NC(=O)c1cc(F)c(NC2CCCCC2N)nc1Nc1cnc2ncccc2c1 (stereo not shown) [Example 010-002]
23 | 7.30 to 8.00 | 6.70 to 6.89 | – | – | CC(C)C[C@@H](Nc1nc(Nc2ccc3ncsc3c2)c(C(N)=O)cc1F)C(N)=O [Example 012-005]
24 | > 8.00 | 6.89 to 7.19 | – | – | CC(C)C[C@@H](Nc1nc(Nc2ccc3ncccc3c2)c(C(N)=O)cc1F)C(N)=O [Example 012-009]
25 | 7.30 to 8.00 | 6.70 to 6.89 | – | – | NC(=O)c1cc(F)c(N[C@@H](C(N)=O)c2ccccc2)nc1Nc1cnc2ccccc2c1 [Example 012-013]
26 | 7.30 to 8.00 | 6.89 to 7.19 | – | – | CC[C@@H](Nc1nc(Nc2ccc3ncccc3c2)c(C(N)=O)cc1F)C(N)=O [Example 012-031]
27 | 7.30 to 8.00 | 6.89 to 7.19 | – | – | C[C@@H](Nc1nc(Nc2ccc3ncccc3c2)c(C(N)=O)cc1F)C(N)=O [Example 012-036, (R)-6-((1-amino-1-oxopropan-2-yl)amino)-5-fluoro-2-((quinolin-6-yl)amino)nicotinamide]
28 | > 8.00 | > 7.19 | – | – | CC(C)C(N)CNc1nc(Nc2ccc3ncccc3c2)c(C(N)=O)cc1F (stereo not shown) [Example 014-002]
29 | > 8.00 | > 7.19 | – | – | NC(=O)c1cc(F)c(NCC(N)c2ccccc2)nc1Nc1ccc2ncccc2c1 (stereo not shown) [Example 014-005]
30 | > 8.00 | > 7.19 | – | – | CC(N)CNc1nc(Nc2ccc3ncccc3c2)c(C(N)=O)cc1F (stereo not shown) [Example 014-009]
31 | 7.30 to 8.00 | 6.70 to 6.89 | – | – | NC(=O)c1cc(F)c(NCC(N)C2CC2)nc1Nc1ccc2ncccc2c1 (stereo not shown) [Example 014-013, 6-((2-amino-2-cyclopropylethyl)amino)-5-fluoro-2-((quinolin-6-yl)amino)nicotinamide]
32 | > 8.00 | 6.70 to 6.89 | – | – | NC(=O)c1cc(F)c(NCC2(N)CC2)nc1Nc1ccc2ncccc2c1 [Example 014-014, 6-((1-aminocyclopropylmethyl)amino)-5-fluoro-2-((quinolin-6-yl)amino)nicotinamide]
33 | > 8.00 | 6.89 to 7.19 | – | – | NC(=O)c1cc(F)c(NCC(N)C(F)(F)F)nc1Nc1ccc2ncccc2c1 (stereo not shown) [Example 014-016, 6-((2-amino-3,3,3-trifluoropropyl)amino)-5-fluoro-2-((quinolin-6-yl)amino)nicotinamide]
34 | > 8.00 | 6.70 to 6.89 | – | – | NC(=O)c1cc(F)c(NC[C@@H](N)c2ccccn2)nc1Nc1ccc2ncccc2c1 [Example 014-017, (R)-6-((2-amino-2-(pyridin-2-yl)ethyl)amino)-5-fluoro-2-((quinolin-6-yl)amino)nicotinamide]
35 | > 8.00 | 6.89 to 7.19 | – | – | NC(=O)c1cc(F)c(NC[C@@H](N)c2ccsc2)nc1Nc1ccc2ncccc2c1 [Example 014-019, (S)-6-((2-amino-2-(thiophene-3-yl)ethyl)-amino)-5-fluoro-2-((quinolin-6-yl)amino)-nicotinamide]
